Ki data for one compound are collected here from ChEMBL document CHEMBL3639234, “Pyrimidine PDE10 inhibitors” (2015).

This assay has as its target cAMP and cAMP-inhibited cGMP 3',5'-cyclic phosphodiesterase 10A (Homo sapiens, UniProt Q9Y233). The assay is described as follows: Inhibition Assay: PDE10A2 was amplified from human fetal brain cDNA (Clontech, Mountain View, Calif.) using a forward primer corresponding to nucleotides 56-77 of human PDE10A2 (Accession No. AF127480, Genbank Identifier 4894716), containing a Kozak consensus sequence, and a reverse primer corresponding to nucleotides 2406-2413 of human PDE10A2 (Accession No. AF127480, Genbank Identifier 4894716). Amplification with Easy-A polymerase (Stratagene, La Jolla, Calif.) was 95° C. for 2 minutes followed by thirty three cycles of 95° C. for 40 seconds, 55° C. for 30 seconds, and 72° C. for 2 minutes 48 seconds. Final extension was 72° C. for 7 minutes. The PCR product was TA cloned into pcDNA3.2-TOPO (Invitrogen, Carlsbad, Calif.) according to standard protocol. AD293 cells with 70-80% confluency were transiently transfected with human PDE10A2/pcDNA3.2-TOPO using Lipofectamine 2000 according to manufacturer specifications (Invitrogen, Carlsbad, Calif.). Cells were harvested 48 hours post-transfection. It is filed as cell-based.

Structures are written as SMILES.

Sequence of cAMP and cAMP-inhibited cGMP 3',5'-cyclic phosphodiesterase 10A (Q9Y233 whole entry): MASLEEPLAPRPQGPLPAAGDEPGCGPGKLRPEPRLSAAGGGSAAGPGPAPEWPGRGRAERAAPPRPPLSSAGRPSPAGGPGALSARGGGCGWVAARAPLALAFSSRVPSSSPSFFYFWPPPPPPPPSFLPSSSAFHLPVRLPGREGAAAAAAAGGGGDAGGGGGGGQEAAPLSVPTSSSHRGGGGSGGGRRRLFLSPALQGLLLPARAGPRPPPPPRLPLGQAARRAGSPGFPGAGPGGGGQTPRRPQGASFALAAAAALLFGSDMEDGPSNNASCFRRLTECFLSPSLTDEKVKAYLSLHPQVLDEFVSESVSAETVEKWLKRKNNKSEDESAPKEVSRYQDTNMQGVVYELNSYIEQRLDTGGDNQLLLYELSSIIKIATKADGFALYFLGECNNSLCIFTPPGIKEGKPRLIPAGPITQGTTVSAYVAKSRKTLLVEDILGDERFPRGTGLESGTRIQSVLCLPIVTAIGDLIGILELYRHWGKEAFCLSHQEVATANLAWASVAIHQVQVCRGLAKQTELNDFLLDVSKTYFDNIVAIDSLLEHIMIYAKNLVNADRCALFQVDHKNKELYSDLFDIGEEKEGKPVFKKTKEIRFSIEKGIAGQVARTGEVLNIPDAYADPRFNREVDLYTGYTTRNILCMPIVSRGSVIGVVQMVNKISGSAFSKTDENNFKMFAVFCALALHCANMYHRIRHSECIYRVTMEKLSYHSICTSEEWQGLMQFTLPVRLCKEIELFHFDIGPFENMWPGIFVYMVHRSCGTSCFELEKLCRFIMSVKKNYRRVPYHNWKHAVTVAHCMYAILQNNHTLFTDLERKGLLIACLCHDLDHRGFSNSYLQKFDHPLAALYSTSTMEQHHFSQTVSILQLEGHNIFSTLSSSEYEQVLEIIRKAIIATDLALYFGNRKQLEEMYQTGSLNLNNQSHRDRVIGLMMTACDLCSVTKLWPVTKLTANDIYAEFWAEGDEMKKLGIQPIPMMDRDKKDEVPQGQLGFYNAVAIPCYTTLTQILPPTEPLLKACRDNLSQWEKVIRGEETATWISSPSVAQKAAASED

By Ki is commonly meant a dissociation constant, usually derived from enzyme kinetics or from competition with a known ligand. A higher Ki goes with lower affinity. `Cc1ccc([C@H]2C[C@@H]2COc2cc(NCc3cnn(C)c3)nc(C)n2)nc1` returned a Ki of 0.04 nM.
